Earlier results as cited in publication PMC4369286 (Chemistry Central Journal, 2015).
Like-named read-outs stand apart in the source and are kept apart here.

Key:
[1] = value of the pure solvent
[2] = set-up: method as in earlier work; conditions: direct partition, monomer
[3] = for E (excess molar refractivity descriptor): known values used for comparison
[4] = in several of the organic solvents studied
[5] = known value given as comparison

CCCOC(C)=O [propyl acetate]
Kamlet-Taft solvent hydrogen bond basicity, β [1]: 0.40

O=C(O)/C=C/c1ccccc1 [trans-cinnamic acid]
Log Ps (water-solvent partition coefficient) ([2]; solvent Cyclohexane): −0.25
Log Ps (water-solvent partition coefficient) ([2]; solvent Diethyl ether, wet): 1.92
Log Ps (water-solvent partition coefficient) ([2]; solvent Octan-1-ol, wet): 2.13
Log Ps (water-solvent partition coefficient) ([2]; solvent Tetrachloromethane): 0.40
Log Ps (water-solvent partition coefficient) ([2]; solvent Trichloromethane): 1.20

ClC(Cl)Cl [trichloromethane]
Kamlet-Taft solvent hydrogen bond basicity, β [1]: 0.10

O=C(O)c1ccccc1 [Benzoic acid, benzoic acid]
Kdimer (dimerization constant) (in benzene): 590
Kdimer (dimerization constant) (in cyclohexane): 11300
Kdimer (dimerization constant) (in tetrachloromethane): 5010
S (dipolarity/polarity descriptor) [3, 5]: 0.90
V (McGowan characteristic volume descriptor) [3, 5]: 0.9317
E (excess molar refractivity descriptor) [3]: 0.73
E (excess molar refractivity descriptor) ([3]; listed as benzoic acid): 0.730

O=[N+]([O-])c1ccccc1 [nitrobenzene]
Kamlet-Taft solvent hydrogen bond basicity, β [1]: 0.30

OCC(F)(F)F [trifluoroethanol]
Kamlet-Taft solvent hydrogen bond basicity, β [1]: 0.00

CCOC(=O)c1ccccc1 [ethyl benzoate]
E (excess molar refractivity descriptor) [3]: 0.689

CCOC(=O)/C=C/c1ccccc1 [ethyl cinnamate]
E (excess molar refractivity descriptor) [3]: 1.102

CO [methanol]
Kamlet-Taft solvent hydrogen bond basicity, β [1]: 0.66

C1CCCCC1 [cyclohexane]
Kamlet-Taft solvent hydrogen bond basicity, β [1]: 0.00

CC(=O)Oc1ccccc1C(=O)O [aspirin]
solubility in organic solvents [4]: exceeding 1 molar

CC(C)=O [propanone]
Kamlet-Taft solvent hydrogen bond basicity, β [1]: 0.43

CCOCC [diethyl ether]
Kamlet-Taft solvent hydrogen bond basicity, β [1]: 0.47

CC#N [acetonitrile]
Kamlet-Taft solvent hydrogen bond basicity, β [1]: 0.40
